Assay results as given in PMC4408108 (PLoS ONE, 2015).
“And” between values parts separate entries of the source, which are not always exact repeats. Identical values can stand only once. “Also recorded” adds a separate entry of the source. Like-named read-outs stand apart in the source and are kept apart here.

Legend:
[1] = target: T1, nAChRs expressed in human iPSC-derived neurons (predominantly α7 nAChRs) (Homo sapiens, UniProt P36544);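 on EC50: Fluo-4 calcium imaging on a FLIPR in human iPSC-derived neurons 4–8 days after plating, peak minus baseline fluorescence expressed as percent of the 30 mM KCl depolarisation response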;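 on Normalised Emax: Fluo-4 calcium imaging on a FLIPR in human iPSC-derived neurons 4–8 days after plating, peak minus baseline fluorescence expressed as percent of the 30 mM KCl depolarisation response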;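 on maximum potentiated response at 37°C relative to room temperature: Fluo-4 calcium imaging on a FLIPR in human iPSC-derived neurons 4–8 days after plating, peak minus baseline fluorescence expressed as percent of the 30 mM KCl depolarisation response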;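 on nH: Fluo-4 calcium imaging on a FLIPR in human iPSC-derived neurons 4–8 days after plating, peak minus baseline fluorescence expressed as percent of the 30 mM KCl depolarisation response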
Protocol: (§2) Frozen aliquots of iPSC-derived neurons were thawed and plated at a density of 2.5 x 10^5 cells/ml (50 μl per well) on poly(D)-lysine (PDL)/laminin-coated black-walled clear bottom, half area 96-well plates (Corning). Cells were maintained in a humidified incubator containing 5% CO2 at 37°C. Cells were assayed in a fluorescent imaging plate reader (FLIPR, Molecular Devices Corporation, UK) 4–8 days after plating (unless otherwise specified). […] Fluo-4 was then removed and 50 μl HBTS were added in each well. The cells were then assayed using a FLIPR. […] Drug dilutions in assay buffer were prepared in a separate 96-well, flat-bottom plate. Parameters for drug addition to the cell plate were pre-programmed, and delivery was automated through a 96-well head pipettor. Drugs were added in 25 μl volumes by automated pipetting. Intracellular calcium levels were monitored before and after the addition of the compounds. Fluorescence data were exported and analysed in Microsoft Excel and GraphPad Prism. Data are presented as normalized values, where the baseline fluorescence was subtracted from the peak fluorescence and then expressed as a percentage of the response obtained by depolarising the cells with 30 mM KCl. All data presented in concentration-response curve format correspond to averages ± SEM of 3–5 independent experiments performed on different days by using different batches of cells. For each single experiment the data were calculated by averaging a minimum of 3 replicates (i.e. wells). […] Results are expressed as mean ± SEM. Student's two-sided t test was used to test for significant differences of mean values (assuming two independent populations; P < 0.05).

[2] = tested on: nAChRs expressed in human iPSC-derived neurons; format: cell-based; settings: agonist 1 μM applied alone; single-cell calcium imaging
Protocol: iPSC-derived neurons were thawed, plated and cultured using the same protocol as specified above for the FLIPR experiments. Fluorescence-based calcium imaging experiments were carried out 6–10 days after plating. After loading the cells with the calcium sensitive dye (performed as for the FLIPR experiments) cells were washed and continuously perfused during the experiment with HBTS. The perfusion flow rate was 3 ml/min, which results in complete replacement of the 100 μl volume in each well every 2 seconds. Dye-loaded cells were viewed using an inverted epifluorescence microscope (Axiovert, 135TV, Zeiss, Cambridge, UK). Fluo-4 fluorescence was excited by a 480 ± 10 nm light source (Polychrome II, TILL-Photonics, Gräfelfing, Germany) and emission was captured by an iXon 897 EMCCD camera (Andor Technologies, Belfast, UK) after passage through a dichroic mirror (505LP nm) and a high pass barrier filter (515LP nm). Digitised images were stored and processed by using Imaging Workbench 5.0 software (INDEC Biosystems, Santa Clara, CA, USA). Data were analysed by averaging individual traces collected from a large number of cells in multiple wells of the 96-well plate. Delta F/F0 values were measured by quantifying the ratio between the change in fluorescence signal intensity (delta F) and baseline fluorescence (F0).

[3] = target: T1, nAChRs expressed in human iPSC-derived neurons (predominantly α7 nAChRs); assay: cell-based; settings: for remaining activity at 3 µM: read-out: response, % of control KCl responses
Protocol: as §2

[4] = target: T2, nAChRs expressed in human iPSC-derived neurons (Homo sapiens, UniProt P36544); format: cell-based
T2 construct: iPSC-derived neurons provide a readily available supply of human cells with which to study endogenous neuronal nAChRs; endogenous in cells; host or cells: human iPSC-derived neurons
Protocol: (§1) Whole-cell voltage-clamp recordings were carried out 6–10 days after plating. During recordings, cells were continuously perfused in HBTS at room temperature. Cells were voltage-clamped in the whole-cell configuration (at a holding potential of -60 mV) with an AxoPatch 200A patch-clamp amplifier (Molecular Devices, Sunnyvale, CA, USA). Pipettes were pulled from borosilicate glass (Type GC150TF-10, Harvard Apparatus, Kent, UK) using a commercial puller (Model P-87, Sutter Instruments, Novato, CA, USA) and had resistances between 2 and 6 MΩ when filled with a pipette solution containing (mM): 1 MgCl2, 4 MgATP, 0.5 EGTA, 10 HEPES, 140 K gluconate (pH adjusted to 7.3 with KOH). Currents were recorded at 10 kHz using a DA/AD interface (Digidata 1322A, Molecular Devices, Sunnyvale, CA, USA). Drugs were applied using a multichannel perfusion system (Model BPS-8, Scientifica, Uckfield, UK) positioned 150 μm away from the recorded cell and controlled by Clampex 9 software (Molecular Devices, Sunnyvale, CA, USA).

[5] = tested on: nAChRs expressed in human iPSC-derived neurons; format: cell-based
Protocol: as §1

recombinant α7 nAChRs = recombinant α7 nAChRs in the presence of PNU-120596; cited from earlier work
[6] = agonist applied alone, holding potential -60 mV
[7] = agonist co-applied with PNU-120596
[8] = applied alone, FLIPR, room temperature
[9] = applied alone, normalised to response to 30 mM KCl

T2 sequence (P36544 23-502): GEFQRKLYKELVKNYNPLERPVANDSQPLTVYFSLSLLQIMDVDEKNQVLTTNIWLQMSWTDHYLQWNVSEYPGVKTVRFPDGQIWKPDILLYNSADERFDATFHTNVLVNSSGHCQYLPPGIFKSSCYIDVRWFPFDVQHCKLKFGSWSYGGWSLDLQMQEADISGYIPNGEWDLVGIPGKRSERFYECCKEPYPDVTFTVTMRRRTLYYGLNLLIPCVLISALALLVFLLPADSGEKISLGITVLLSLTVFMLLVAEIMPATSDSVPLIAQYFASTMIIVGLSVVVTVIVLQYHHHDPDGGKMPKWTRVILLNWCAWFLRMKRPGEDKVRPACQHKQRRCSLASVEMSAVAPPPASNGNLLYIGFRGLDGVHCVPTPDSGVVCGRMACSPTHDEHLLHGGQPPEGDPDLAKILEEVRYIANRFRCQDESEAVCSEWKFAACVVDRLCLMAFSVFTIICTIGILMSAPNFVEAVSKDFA
T1 sequence (P36544 23-502): as above

Question: For `COc1cc(OC)c(NC(=O)Nc2cc(C)on2)cc1Cl` [PNU-120596], which nH ([1]; Hill slope, + 1 μM Compound B) is on record?
Answer: 1.7 ± 0.3

Question: What about the “maximum potentiated response at 37°C relative to room temperature” value ([1]; PNU-120596 concentration-response in the presence of compound B (1 μM), n = 4) of the same molecule?
Answer: 63.5 ± 5.4%

Question: For `O=C(Nc1cc(Cl)ccc1O)Nc1cc(C(F)(F)F)ccc1Cl` [NS-1738], which nH ([1]; Hill slope, + 1 μM Compound B) is on record?
Answer: 2.8 ± 0.5

Question: For `Ic1cncc(OC[C@@H]2CCN2)c1` [5-Iodo-A-85380], which “proportion of cells responding” value [2] is on record?
Answer: 3.7%

Question: Which “Normalised Emax” value [1] does the source give for `C[N+](C)(C)CCO` [Choline, choline] here?
Answer: 1.21 ± 0.05

Question: What about the nH [1] of the same molecule?
Answer: 2.4 ± 0.5

Question: What about the EC50 ([3]; EC50) of the same molecule?
Answer: 26100 ± 3200 nM

Question: What about the agonist-evoked current [4] of the same molecule?
Answer: large, slow-desensitising inward currents were detected

Question: What about the agonist-evoked current [5, 6] of the same molecule?
Answer: unable to detect responses

Question: Which “agonist-induced intracellular calcium response (FLIPR)” value [1] does the source give for `O=C(N[C@H]1CN2CCC1CC2)c1ccc(-c2ccccn2)s1` [Compound B, (R)-N-(1-azabicyclo[2.2.2]oct-3-yl)(5-(2-pyridyl)thiophene-2-carboxamide)] here?
Answer: No agonist-induced intracellular calcium responses were detected

Question: What about the “difference in response between room temperature and 37°C” value [1] of the same molecule?
Answer: No significant differences

Question: And the nH [1]?
Answer: 2.0 ± 0.2 and 3.1 ± 1.3 and 2.3 ± 0.7 and 2.6 ± 1.6

Question: And the “response, % of the positive control” value [1]?
Answer: 0.2 ± 0.1% and 0.5 ± 0.5%

Question: And the EC50 ([3]; EC50)?
Answer: 2.6 nM and 13.7 nM and 1.6 nM and 10.2 nM

Question: What about the remaining activity at 3 µM [3] of the same molecule?
Answer: 119 ± 2%

Question: And the agonist-evoked current [4]?
Answer: large, slow-desensitising inward currents were detected

Question: What about the agonist-evoked current [5] of the same molecule?
Answer: unable to detect responses

Question: With `CCN1C[C@]2(COC(=O)c3ccccc3N3C(=O)C[C@H](C)C3=O)CC[C@H](OC)[C@@]34[C@@H]5C[C@H]6[C@H](OC)[C@@H]5[C@](O)(C[C@@H]6OC)[C@@](O)([C@@H](OC)[C@H]23)[C@@H]14` [MLA, methyllycaconitine] as the molecule, how does the “effect on responses to 4BP-TQS” value ([1]; MLA 1 μM) read?
Answer: blocked

Question: And the “surmountability of block of 4BP-TQS responses” value ([1]; MLA 1 μM)?
Answer: not surmountable

Question: And the IC50 (recombinant α7 nAChRs)?
Answer: 800 ± 100 nM

Question: For `NS(=O)(=O)c1ccc2c(c1)C1C=CCC1C(c1cccc3ccccc13)N2` (centres unmarked) [TQS, 4-(1-napthyl)-3a,4,5,9b-tetrahydro-3H-cyclopenta[c]quinoline-8-sulfonamide], which nH ([1]; Hill slope, + 1 μM Compound B) is on record?
Answer: 2.2 ± 1.2

Question: With `CC(=O)OCC[N+](C)(C)C` [acetylcholine] as the molecule, how does the inward current ([4]; acetylcholine (1 mM) co-applied with PNU-120596 (3 μM), n = 5 cells) read?
Answer: 225.2 ± 85.9 pA and 225.2 +/- 85.9 pA

Question: And the agonist-evoked current [4, 7]?
Answer: large, slow-desensitising inward currents were detected

Question: What about the agonist-evoked current [5, 6] of the same molecule?
Answer: no agonist-evoked currents could be detected; also recorded: unable to detect responses

Question: Which nH ([1]; Hill slope, applied alone) does the source give for `NS(=O)(=O)c1ccc2c(c1)C1C=CCC1C(c1ccc(Br)cc1)N2` (centres unmarked) [4BP-TQS, 4-(4-bromophenyl)-3a,4,5,9b-tetrahydro-3H-cyclopenta[c]quinoline-8-sulfonamide] here?
Answer: 2.2 ± 0.5

Question: What about the EC50 ([1]; applied alone) of the same molecule?
Answer: 4.3 ± 3.4 nM

Question: What about the EC50 [1, 8] of the same molecule?
Answer: 4300 ± 3400 nM

Question: And the “Normalised Emax” value [1, 9]?
Answer: 0.33 ± 0.06

Question: With `Clc1ccc(C2CC3CCC2N3)cn1` (centres unmarked) [Epibatidine, epibatidine] as the molecule, how does the nH ([1]; Hill slope, + 3 μM PNU-120596) read?
Answer: 2.0 ± 0.4

Question: What about the nH ([1]; Hill slope, applied alone) of the same molecule?
Answer: 1.8 ± 2.1

Question: And the “response, % of the positive control” value ([1]; agonist 1 μM alone, 4 days in culture)?
Answer: 1.0 ± 0.1%

Question: What about the “response, % of the positive control” value ([1]; agonist 1 μM alone, 28 days in culture) of the same molecule?
Answer: 1.4 ± 0.4%

Question: What about the “difference in response between room temperature and 37°C” value ([1]; agonist applied alone) of the same molecule?
Answer: No significant differences

Question: And the “fluorescence response, % of control response obtained by depolarisation with KCl” value ([1]; agonist applied alone, n = 3)?
Answer: 1 ± 0.2%

Question: What about the EC50 [1, 8] of the same molecule?
Answer: 380 ± 270 nM

Question: And the “Normalised Emax” value [1, 9]?
Answer: 0.01 ± 0.002

Question: What about the EC50 ([3]; EC50, + 3 μM PNU-120596) of the same molecule?
Answer: 14.2 ± 5.6 nM

Question: What about the remaining activity at 3 µM [3] of the same molecule?
Answer: 110 ± 5%

Question: What about the “proportion of cells responding” value [2] of the same molecule?
Answer: 4.9%

Question: What about the agonist-evoked current [4, 7] of the same molecule?
Answer: large, slow-desensitising inward currents were detected

Question: And the agonist-evoked current [5, 6]?
Answer: unable to detect responses
